Measured values as given in ChEMBL document CHEMBL3124829, “Discovery of SCH 900188: A Potent Hepatitis C Virus NS5B Polymerase Inhibitor Prodrug As a Development Candidate” (ACS Med Chem Lett, 2014).
Active and inactive are the calls of the source. The rule behind the calls is not given here.

Assays:
[1] = Inhibition of HCV genotype 1b C-terminal polyhistidine-tagged NS5B Cdelta21 RdRp expressed in Escherichia coli using DCoH75 as template assessed as incorporation of [33P]-CTP in polynucleotide sequence after 2 hrs by scintillation counting analysis; set-up: species or system Hepatitis C virus subtype 1b
Hepatitis C virus = test: Antiviral activity against HCV infected in human hepatoma cells assessed as inhibition of viral RNA replication after 3 days by real time PCR analysis; assay type: functional, organism-based, Hepacivirus hominis; details: 72 h
Rattus norvegicus [2] = test: AUC (0 to 6 hrs) in rat assessed as 4-Fluoro-6-((7-fluoro-4-oxo-3,4-dihydroquinazolin-6-yl)methyl)-8-(2-oxo-1,2-dihydropyridin-3-yl)-6H-furo[2,3-e]indole-7-carboxylic acid at 10 mg/kg, po; assay type: ADME, organism-based, Plasma; set-up: time < 6 hr, dose 10 mg/kg, route oral; details: in vivo
[3] = AUC (0 to 6 hrs) in rat at 10 mg/kg, po; assay type: ADME, organism-based; set-up: time < 6 hr, dose 10 mg/kg, route oral; details: plasma
[4] = Clearance in iv dosed dog; assay type: ADME, organism-based, Canis lupus familiaris; details: in vivo
[5] = AUC (0 to 24 hrs) in rat at 10 mg/kg, po; assay type: ADME, organism-based; set-up: time < 24 hr, dose 10 mg/kg, route oral; details: plasma
[6] = system: RNA-directed RNA polymerase (Hepacivirus hominis), O39930 [G554D]; test: Inhibition of HCV NS5B RdRp G554D mutant palm allosteric site
Sequence of RNA-directed RNA polymerase (Hepacivirus hominis), O39930 [G554D] (O39930 entry or part of it G554D): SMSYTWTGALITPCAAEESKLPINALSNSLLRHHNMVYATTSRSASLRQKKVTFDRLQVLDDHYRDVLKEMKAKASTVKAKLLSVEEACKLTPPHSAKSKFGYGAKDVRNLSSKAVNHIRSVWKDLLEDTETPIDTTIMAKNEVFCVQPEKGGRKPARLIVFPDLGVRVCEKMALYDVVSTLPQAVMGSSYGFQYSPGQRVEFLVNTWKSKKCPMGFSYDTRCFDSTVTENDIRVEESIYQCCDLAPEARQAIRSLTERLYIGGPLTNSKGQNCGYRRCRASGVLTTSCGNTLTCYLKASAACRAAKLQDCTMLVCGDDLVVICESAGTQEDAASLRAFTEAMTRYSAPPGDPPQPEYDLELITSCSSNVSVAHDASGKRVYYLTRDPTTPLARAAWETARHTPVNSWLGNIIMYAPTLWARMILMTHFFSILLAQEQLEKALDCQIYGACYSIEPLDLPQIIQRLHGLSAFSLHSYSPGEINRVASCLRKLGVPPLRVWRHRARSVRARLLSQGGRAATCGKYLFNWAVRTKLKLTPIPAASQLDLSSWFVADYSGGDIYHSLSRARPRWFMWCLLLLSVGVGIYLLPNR

[7] = Inhibition of HCV genotype 4a C-terminal polyhistidine-tagged NS5B Cdelta21 RdRp expressed in Escherichia coli using DCoH75 as template assessed as incorporation of [33P]-CTP in polynucleotide sequence after 2 hrs by scintillation counting analysis; set-up: species or system Hepatitis C virus subtype 4a
[8] = Cmax in dog; assay type: ADME, organism-based, Canis lupus familiaris; details: in vivo
[9] = Clearance in iv dosed rat; assay type: ADME, organism-based; details: in vivo
[10] = Oral bioavailability in dog; assay type: ADME, organism-based, Canis lupus familiaris; details: in vivo
[11] = AUC (0 to 24 hrs) in dog at 3 mg/kg, po; assay type: ADME, organism-based, Canis lupus familiaris; set-up: time < 24 hr, dose 3 mg/kg, route oral; details: plasma
[12] = Clearance in iv dosed monkey; assay type: ADME, organism-based, Macaca mulatta; details: rhesus monkey, in vivo
[13] = Cmax in monkey; assay type: ADME, organism-based, Macaca mulatta; details: rhesus monkey, in vivo
[14] = system: RNA-directed RNA polymerase (Hepacivirus hominis), O39930 [C316Y]; test: Inhibition of HCV NS5B RdRp C316Y mutant palm allosteric site
Sequence of RNA-directed RNA polymerase (Hepacivirus hominis), O39930 [C316Y] (O39930 entry or part of it C316Y): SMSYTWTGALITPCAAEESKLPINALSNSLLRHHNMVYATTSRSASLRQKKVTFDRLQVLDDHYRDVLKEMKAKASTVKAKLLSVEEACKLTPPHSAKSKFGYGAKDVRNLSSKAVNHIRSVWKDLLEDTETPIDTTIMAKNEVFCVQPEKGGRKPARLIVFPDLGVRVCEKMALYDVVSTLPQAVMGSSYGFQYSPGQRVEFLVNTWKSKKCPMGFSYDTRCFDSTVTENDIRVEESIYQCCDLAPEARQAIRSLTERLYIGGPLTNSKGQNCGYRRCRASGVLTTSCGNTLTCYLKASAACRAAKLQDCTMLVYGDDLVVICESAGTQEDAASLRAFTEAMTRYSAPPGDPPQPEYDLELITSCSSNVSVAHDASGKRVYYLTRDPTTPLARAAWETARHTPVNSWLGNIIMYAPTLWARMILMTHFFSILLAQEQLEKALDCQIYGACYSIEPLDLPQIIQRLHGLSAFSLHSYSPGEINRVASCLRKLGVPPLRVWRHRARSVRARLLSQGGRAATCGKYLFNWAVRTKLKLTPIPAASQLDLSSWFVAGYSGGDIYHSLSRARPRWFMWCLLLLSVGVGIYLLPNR

[15] = Inhibition of HCV genotype 3a C-terminal polyhistidine-tagged NS5B Cdelta21 RdRp expressed in Escherichia coli using DCoH75 as template assessed as incorporation of [33P]-CTP in polynucleotide sequence after 2 hrs by scintillation counting analysis; set-up: species or system Hepatitis C virus subtype 3a
[16] = system: RNA-directed RNA polymerase (Hepacivirus hominis), O39930 [C316Y]; test: Inhibition of HCV NS5B RdRp C316Y mutant active site
Salmonella typhimurium = test: Mutagenic activity in Salmonella typhimurium by mini Ames test; assay type: toxicity, organism-based; details: salmonella enterica subsp. enterica serovar typhimurium
[17] = Oral bioavailability in rat; assay type: ADME, organism-based; details: in vivo
[18] = Half life in monkey at 1 mg/kg, iv; assay type: ADME, organism-based, Macaca mulatta; set-up: dose 1 mg/kg, route intravenous; details: rhesus monkey, in vivo
[19] = Half life in rat at 3 mg/kg, iv; assay type: ADME, organism-based; set-up: dose 3 mg/kg, route intravenous; details: in vivo
[20] = system: RNA-directed RNA polymerase (Hepacivirus hominis), O39930 [M414T]; test: Inhibition of HCV NS5B RdRp M414T mutant palm allosteric site
Sequence of RNA-directed RNA polymerase (Hepacivirus hominis), O39930 [M414T] (O39930 entry or part of it M414T): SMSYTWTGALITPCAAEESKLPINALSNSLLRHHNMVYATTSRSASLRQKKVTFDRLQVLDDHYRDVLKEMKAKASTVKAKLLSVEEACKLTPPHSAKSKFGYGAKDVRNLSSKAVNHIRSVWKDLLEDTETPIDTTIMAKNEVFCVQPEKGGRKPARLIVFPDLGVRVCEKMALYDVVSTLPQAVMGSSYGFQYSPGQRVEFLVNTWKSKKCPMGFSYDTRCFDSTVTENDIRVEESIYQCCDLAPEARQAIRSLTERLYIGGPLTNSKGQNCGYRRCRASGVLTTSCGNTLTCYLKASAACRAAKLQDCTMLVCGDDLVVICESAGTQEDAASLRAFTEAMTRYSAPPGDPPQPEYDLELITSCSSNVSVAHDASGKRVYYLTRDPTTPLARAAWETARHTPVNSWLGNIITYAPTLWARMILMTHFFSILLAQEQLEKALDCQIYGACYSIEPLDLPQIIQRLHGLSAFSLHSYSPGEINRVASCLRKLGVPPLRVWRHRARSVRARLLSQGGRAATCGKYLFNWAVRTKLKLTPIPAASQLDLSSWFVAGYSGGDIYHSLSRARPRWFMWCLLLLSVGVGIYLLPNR

[21] = Mutagenic activity in micronucleus (unknown origin); assay type: ADME
[22] = system: RNA-directed RNA polymerase (Hepacivirus hominis), O39930 [M414T]; test: Inhibition of HCV NS5B RdRp M414T mutant active site
[23] = Half life in dog at 1 mg/kg, iv; assay type: ADME, organism-based, Canis lupus familiaris; set-up: dose 1 mg/kg, route intravenous; details: in vivo
[24] = AUC (0 to 24 hrs) in monkey at 3 mg/kg, po; assay type: ADME, organism-based, Macaca mulatta; set-up: time < 24 hr, dose 3 mg/kg, route oral; details: rhesus monkey, plasma
[25] = Inhibition of HCV genotype 2a C-terminal polyhistidine-tagged NS5B Cdelta21 RdRp expressed in Escherichia coli using DCoH75 as template assessed as incorporation of [33P]-CTP in polynucleotide sequence after 2 hrs by scintillation counting analysis; set-up: species or system Hepatitis C virus subtype 2a
[26] = Inhibition of HCV genotype 1a C-terminal polyhistidine-tagged NS5B Cdelta21 RdRp expressed in Escherichia coli using DCoH75 as template assessed as incorporation of [33P]-CTP in polynucleotide sequence after 2 hrs by scintillation counting analysis; set-up: species or system Hepatitis C virus subtype 1a
[27] = Cmax in rat; assay type: ADME, organism-based; details: in vivo
[28] = Oral bioavailability in monkey; assay type: ADME, organism-based, Macaca mulatta; details: rhesus monkey, in vivo
[29] = system: RNA-directed RNA polymerase (Hepacivirus hominis), O39930 [G554D]; test: Inhibition of HCV NS5B RdRp G554D mutant active site
Rattus norvegicus [30] = organism: Rattus norvegicus; test: Ratio of drug level from liver to plasma in rat assessed as 4-Fluoro-6-((7-fluoro-4-oxo-3,4-dihydroquinazolin-6-yl)methyl)-8-(2-oxo-1,2-dihydropyridin-3-yl)-6H-furo[2,3-e]indole-7-carboxylic acid after 6 hrs; details: other tissue

CCc1ccc2c(c1)c(-c1ccc[nH]c1=O)c(C(=O)NS(=O)(=O)C1CC1)n2Cc1cc(S(C)(=O)=O)ccc1F
IC50 [1]: 0.008 µM
EC50 (Hepatitis C virus): 0.08 µM

CCOC(=O)c1c(-c2ccc[nH]c2=O)c2c3occc3c(F)cc2n1Cc1cc2c(=O)[nH]cnc2cc1F
AUC (Rattus norvegicus [2]): 0.22 µM·h
IC50 [1]: 0.009 µM
EC50 (Hepatitis C virus): 0.022 µM

Cc1nc2cc(F)c(Cn3c(C(=O)O)c(-c4ccc[nH]c4=O)c4c5occc5c(F)cc43)cc2c(=O)[nH]1
IC50 [1]: 0.004 µM
AUC(0-t) at 6 h [3]: 0.85 µM·h
EC50 (Hepatitis C virus): 0.02 µM

CCc1cc2c(-c3ccc[nH]c3=O)c(C(=O)NS(=O)(=O)C3CC3)n(Cc3cc(C(N)=O)ccc3F)c2cc1F
IC50 [1]: 0.005 µM
EC50 (Hepatitis C virus): 0.06 µM

NC(=O)c1ccc(F)c(Cn2c(C(=O)O)c(-c3ccc[nH]c3=O)c3c4occc4c(F)cc32)c1
IC50 [1]: 0.004 µM

CCc1ccc2c(c1)c(-c1ccc[nH]c1=O)c(C(=O)NS(=O)(=O)C1CC1)n2Cc1cc(S(N)(=O)=O)ccc1F
IC50 [1]: 0.005 µM
EC50 (Hepatitis C virus): 0.08 µM

CCc1ccc2c(c1)c(-c1ccc[nH]c1=O)c(C(=O)NS(=O)(=O)C1CC1)n2Cc1cc(C#N)ccc1F
IC50 [1]: 0.007 µM
EC50 (Hepatitis C virus): 0.08 µM

NC(=O)c1ccc(F)c(Cn2c(C(=O)NS(=O)(=O)C3CC3)c(-c3ccc[nH]c3=O)c3cc(C(F)(F)F)ccc32)c1
IC50 [1]: 0.006 µM
EC50 (Hepatitis C virus): 0.17 µM

Cc1cc2c(-c3ccc[nH]c3=O)c(C(=O)NS(=O)(=O)C3CC3)n(Cc3cc(C(N)=O)ccc3F)c2cc1F
IC50 [1]: 0.004 µM
EC50 (Hepatitis C virus): 0.05 µM

Cn1cnc2cc(F)c(Cn3c(C(=O)O)c(-c4ccc[nH]c4=O)c4c5occc5c(F)cc43)cc2c1=O
IC50 [1]: 0.003 µM
AUC(0-t) at 6 h [3]: 0.17 µM·h
EC50 (Hepatitis C virus): 0.25 µM

Nc1nc2cc(F)c(Cn3c(C(=O)O)c(-c4ccc[nH]c4=O)c4c5occc5c(F)cc43)cc2c(=O)[nH]1
IC50 [1]: 0.007 µM
AUC(0-t) at 6 h [3]: 0.02 µM·h
EC50 (Hepatitis C virus): 0.007 µM

O=C(O)c1c(-c2ccc[nH]c2=O)c2c3occc3c(F)cc2n1Cc1cc2c(=O)[nH]cnc2cc1F
clearance [4]: 11 mL/min/kg
AUC(0-t) at 24 h [5]: 10 µM·h
inhibition [6]: inactive
IC50 [7]: > 5 µM
Cmax [8]: 100 nM
clearance [9]: 0.2 mL/min/kg
bioavailability [10]: 4%
AUC(0-t) at 24 h [11]: 0.4 µM·h
clearance [12]: 0.6 mL/min/kg
Cmax [13]: 800 nM
inhibition [14]: inactive
IC50 [1]: 0.005 µM
AUC(0-t) at 6 h [3]: 4.3 µM·h
IC50 [15]: > 5 µM
inhibition [16]: Active
Activity (Salmonella typhimurium): Non-toxic
bioavailability [17]: 0.7%
half-life [18]: 8.9 h
half-life [19]: 9.4 h
inhibition [20]: inactive
Activity [21]: Non-toxic
inhibition [22]: Active
half-life [23]: 3.2 h
AUC(0-t) at 24 h [24]: 8 µM·h
IC50 [25]: > 5 µM
IC50 [26]: 0.007 µM
EC50 (Hepatitis C virus): 0.006 µM
Cmax [27]: 1400 nM
bioavailability [28]: 5%
inhibition [29]: Active

O=C(O)c1c(-c2ccc[nH]c2=O)c2c3occc3c(F)cc2n1Cc1cc2[nH]c(=O)[nH]c2cc1F
IC50 [1]: 0.007 µM
AUC(0-t) at 6 h [3]: 4 µM·h
EC50 (Hepatitis C virus): 0.01 µM

CN(C)CCCOC(=O)c1c(-c2ccc[nH]c2=O)c2c3occc3c(F)cc2n1Cc1cc2c(=O)[nH]cnc2cc1F
AUC (Rattus norvegicus [2]): 2.3 µM·h
IC50 [1]: 0.11 µM
Ratio (Rattus norvegicus [30]): 0.4
EC50 (Hepatitis C virus): 0.011 µM

CCOC(=O)c1c(-c2ccc[nH]c2=O)c2c3occc3c(F)cc2n1Cc1cc2c(=O)n(COC(=O)C(C)(C)C)cnc2cc1F
IC50 [1]: 0.4 µM
EC50 (Hepatitis C virus): 0.069 µM

CN(C)CCCCOC(=O)c1c(-c2ccc[nH]c2=O)c2c3occc3c(F)cc2n1Cc1cc2c(=O)[nH]cnc2cc1F
AUC (Rattus norvegicus [2]): 0.79 µM·h
IC50 [1]: 0.075 µM
EC50 (Hepatitis C virus): 0.014 µM

O=C(O)c1c(-c2ccc[nH]c2=O)c2c3occc3c(F)cc2n1Cc1cc2c(=O)[nH]c(=O)[nH]c2cc1F
IC50 [1]: 0.004 µM
AUC(0-t) at 6 h [3]: 8.3 µM·h
EC50 (Hepatitis C virus): 0.006 µM

CC(C)(C)C(=O)OCn1cnc2cc(F)c(Cn3c(C(=O)O)c(-c4ccc[nH]c4=O)c4c5occc5c(F)cc43)cc2c1=O
IC50 [1]: 0.013 µM
EC50 (Hepatitis C virus): 0.01 µM

CCc1ccc2c(c1)c(-c1ccc[nH]c1=O)c(C(=O)NS(=O)(=O)C1CC1)n2Cc1cc(F)ccc1F
IC50 [1]: 0.003 µM
EC50 (Hepatitis C virus): 0.04 µM

O=C(O)c1ccc(F)c(Cn2c(C(=O)O)c(-c3ccc[nH]c3=O)c3c4occc4c(F)cc32)c1
IC50 [1]: 0.005 µM
EC50 (Hepatitis C virus): 0.7 µM

NC(=O)c1ccc(F)c(Cn2c(C(=O)NS(=O)(=O)C3CC3)c(-c3ccc[nH]c3=O)c3cc(C(F)(F)F)c(F)cc32)c1
IC50 [1]: 0.008 µM
EC50 (Hepatitis C virus): 0.15 µM

CCc1ccc2c(c1)c(-c1ccc[nH]c1=O)c(C(=O)NS(=O)(=O)C1CC1)n2Cc1cc(O)ccc1F
IC50 [1]: 0.005 µM
EC50 (Hepatitis C virus): 0.1 µM

CC(=O)c1ccc(F)c(Cn2c(C(=O)O)c(-c3ccc[nH]c3=O)c3c4occc4c(F)cc32)c1
IC50 [1]: 0.02 µM
AUC(0-t) at 6 h [3]: 8.8 µM·h
EC50 (Hepatitis C virus): 0.07 µM

NC(=O)c1ccc(F)c(Cn2c(C(=O)NS(=O)(=O)C3CC3)c(-c3ccc[nH]c3=O)c3c4occc4c(F)cc32)c1
IC50 [1]: 0.005 µM
AUC(0-t) at 6 h [3]: 0.21 µM·h
EC50 (Hepatitis C virus): 0.01 µM

CCc1ccc2c(c1)c(-c1ccc[nH]c1=O)c(C(=O)NS(=O)(=O)C1CC1)n2Cc1cc(C(N)=O)ccc1F
IC50 [1]: 0.012 µM
EC50 (Hepatitis C virus): 0.03 µM

O=C(O)c1c(-c2ccc[nH]c2=O)c2c3occc3c(F)cc2n1Cc1cc2[nH]c(=O)oc2cc1F
IC50 [1]: 2 µM
EC50 (Hepatitis C virus): 2 µM

Cn1c(=O)[nH]c(=O)c2cc(Cn3c(C(=O)O)c(-c4ccc[nH]c4=O)c4c5occc5c(F)cc43)c(F)cc21
IC50 [1]: 0.006 µM
EC50 (Hepatitis C virus): 0.3 µM

Cc1ccc2c(c1)c(-c1ccc[nH]c1=O)c(C(=O)NS(=O)(=O)C1CC1)n2Cc1cc(C(N)=O)ccc1F
IC50 [1]: 0.004 µM

CC(C)(C)C(=O)OCn1cccc(-c2c(C(=O)O)n(Cc3cc4c(=O)[nH]cnc4cc3F)c3cc(F)c4ccoc4c23)c1=O
IC50 [1]: 0.051 µM
EC50 (Hepatitis C virus): 0.067 µM
